Drawing on paper PMC6222646, “HIV-1 Integrase-Targeted Short Peptides Derived from a Viral Protein R Sequence” (Molecules : A Journal of Synthetic Chemistry and Natural …, 2018), this text covers IC50 for 25 compounds.

What is called IC50 is the midpoint of a concentration-inhibition curve. Read a low IC50 as inhibition by little substance.

“And” between values parts separate entries of the source, which are not always exact repeats. Equal entries are not always repeated. Where a SMILES comes first, the peptide text is derived from it. [ ]: non-standard residue; d: D form. Bpa = N[C@@H](Cc1ccc(C(=O)c2ccccc2)cc1)C(=O)O A value given as a limit tells only on which side of the number the result lay.

For assay [1], the target named is T1, HIV-1 integrase (IN) (Human immunodeficiency virus type 1 group M subtype B, UniProt P12497). Put plainly: In vitro integrase catalytic assay, 3'-processing (3'-P). In kind it is biochemical. As to conditions: 400 nM IN, 20 nM 32P-labeled 21T/21B DNA, 37 °C, 2 h. On the procedure:
(§1) IN reactions were performed as previously described. […] Reactions were performed at 37 °C (2 h) and quenched by the addition of an equal volume of loading buffer (formamide containing 1% sodium dodecyl sulfate, 0.25% bromophenol blue, and xylene cyanol). Reaction products were separated in 16% polyacrylamide denaturing sequencing gels. Dried gels were visualized using a Typhoon 8600 instrument (GE Healthcare, Chicago, IL, USA). Densitometric analyses were performed using ImageQuant 5.1 software (GE Healthcare, Chicago, IL, USA). Data analyses (linear regression, 50% inhibitory concentration [IC50] determination, standard deviation [SD]) were performed from at least 3 independent determinations using Prism 5.0c software from GraphPad (La Jolla, CA, USA). To assay 3′-P inhibitory potency, reactions were carried out with [γ-^32P]-labeled full-length oligonucleotide 21T ([…]) annealed to the complementary oligonucleotide 21B ([…]). Formation of the shorter processed 19T products was monitored and quantified to assess enzyme performance and inhibitor potency. The ST reactions were carried out with the [γ-^32P]-labeled pre-cleaved oligonucleotide 19T ([…]) annealed to the complementary oligonucleotide 21B ([…]) and formation of integration products (longer and slower migrating than the starting 19T substrate) was monitored to assess enzyme performance and inhibitor potency.

Assay [2] has as its target T1, HIV-1 integrase (IN). Put plainly: In vitro integrase catalytic assay, strand transfer (ST). In kind it is biochemical. Particulars: 400 nM IN, 20 nM 32P-labeled pre-cleaved 19T/21B DNA, 37 °C, 2 h. On the procedure: as §1

Regarding `CC[C@H](C)[C@H](NC(=O)[C@H](CCCNC(=N)N)NC(=O)[C@H](Cc1ccccc1)NC(=O)[C@H](Cc1c[nH]cn1)NC(=O)[C@@H](NC(=O)[C@@H](N)Cc1ccccc1)[C@@H](C)CC)C(=O)NCC(N)=O` [Peptide 1b, FIHFRIG-amide] (H-FIHFRIG-NH2), the IC50 in assay [1] was found to be 31.5 ± 6 µM; in assay [2], 7.3 ± 0.8 µM.

Turning to `CC[C@H](C)[C@H](NC(=O)[C@H](CCCNC(=N)N)NC(=O)[C@H](Cc1ccccc1)NC(=O)[C@H](Cc1c[nH]cn1)NC(=O)[C@@H](NC(=O)[C@H](Cc1ccccc1)NC(C)=O)[C@@H](C)CC)C(=O)NCC(N)=O` [Peptide 1c, Ac-FIHFRIG-amide] (Ac-FIHFRIG-NH2), the values for the concentration for half-maximal inhibition (IC50) in assay [1] and in assay [2] were 23.5 ± 3 µM and 4.7 ± 0.3 µM, respectively.

For `CC[C@H](C)[C@H](NC(=O)[C@H](CCCNC(=N)N)NC(=O)[C@H](Cc1ccccc1)NC(=O)[C@H](Cc1c[nH]cn1)NC(=O)[C@@H](NC(=O)[C@@H](N)Cc1ccccc1)[C@@H](C)CC)C(=O)N[C@@H](C)C(=O)O` [Peptide 2a, FIHFRIA] (H-FIHFRIA-OH), the IC50 in assay [1] is greater than 111 µM; in assay [2], 34.7 ± 2.3 µM.

Regarding `CC[C@H](C)[C@H](NC(=O)[C@H](CCCNC(=N)N)NC(=O)[C@H](Cc1ccccc1)NC(=O)[C@H](Cc1c[nH]cn1)NC(=O)[C@@H](NC(=O)[C@@H](N)Cc1ccccc1)[C@@H](C)CC)C(=O)N[C@@H](C)C(N)=O` [Peptide 2b, FIHFRIA-amide] (H-FIHFRIA-NH2), the IC50 was greater than 111 µM in assay [1] and 60.6 ± 8 µM in assay [2].

As for `CC[C@H](C)[C@H](NC(=O)[C@H](CCCNC(=N)N)NC(=O)[C@H](Cc1ccccc1)NC(=O)[C@H](Cc1c[nH]cn1)NC(=O)[C@@H](NC(=O)[C@H](Cc1ccccc1)NC(C)=O)[C@@H](C)CC)C(=O)N[C@@H](C)C(N)=O` [Peptide 2c, Ac-FIHFRIA-amide] (Ac-FIHFRIA-NH2), the IC50 in assay [1] stood at 74.5 ± 7 µM; in assay [2] it was 30.4 ± 0.7 µM.

With `CC[C@H](C)[C@H](NC(=O)[C@@H](N)Cc1ccccc1)C(=O)N[C@@H](Cc1c[nH]cn1)C(=O)N[C@@H](Cc1ccccc1)C(=O)N[C@@H](CCCNC(=N)N)C(=O)N[C@@H](C)C(=O)NCC(=O)O` [Peptide 3a, FIHFRAG] (H-FIHFRAG-OH), the results for the half-inhibitory concentration (IC50) in assay [1] and in assay [2] were 66.5 ± 7 µM and 22.4 ± 1.7 µM, respectively.

With `CC[C@H](C)[C@H](NC(=O)[C@@H](N)Cc1ccccc1)C(=O)N[C@@H](Cc1c[nH]cn1)C(=O)N[C@@H](Cc1ccccc1)C(=O)N[C@@H](CCCNC(=N)N)C(=O)N[C@@H](C)C(=O)NCC(N)=O` [Peptide 3b, FIHFRAG-amide] (H-FIHFRAG-NH2), the half-maximal inhibitory concentration (IC50) in assay [1] and in assay [2] was greater than 111 µM throughout.

On to `CC[C@H](C)[C@H](NC(=O)[C@H](Cc1ccccc1)NC(C)=O)C(=O)N[C@@H](Cc1c[nH]cn1)C(=O)N[C@@H](Cc1ccccc1)C(=O)N[C@@H](CCCNC(=N)N)C(=O)N[C@@H](C)C(=O)NCC(N)=O` [Peptide 3c, Ac-FIHFRAG-amide] (Ac-FIHFRAG-NH2), for which the half-maximal inhibitory concentration (IC50) turned out to be 208 ± 12 µM in assay [1] and 28 ± 4 µM in assay [2].

For `CC[C@H](C)[C@H](NC(=O)[C@H](C)NC(=O)[C@H](Cc1ccccc1)NC(=O)[C@H](Cc1c[nH]cn1)NC(=O)[C@@H](NC(=O)[C@@H](N)Cc1ccccc1)[C@@H](C)CC)C(=O)NCC(=O)O` [Peptide 4a, FIHFAIG] (H-FIHFAIG-OH), the half-maximal inhibitory concentration (IC50) in assay [1] and in assay [2] was greater than 111 µM throughout.

For the compound `CC[C@H](C)[C@H](NC(=O)[C@H](C)NC(=O)[C@H](Cc1ccccc1)NC(=O)[C@H](Cc1c[nH]cn1)NC(=O)[C@@H](NC(=O)[C@@H](N)Cc1ccccc1)[C@@H](C)CC)C(=O)NCC(N)=O` [Peptide 4b, FIHFAIG-amide] (H-FIHFAIG-NH2), the IC50 in assay [1] and in assay [2] was greater than 111 µM each time.

With `CC[C@H](C)[C@H](NC(=O)[C@H](C)NC(=O)[C@H](Cc1ccccc1)NC(=O)[C@H](Cc1c[nH]cn1)NC(=O)[C@@H](NC(=O)[C@H](Cc1ccccc1)NC(C)=O)[C@@H](C)CC)C(=O)NCC(N)=O` [Peptide 4c, Ac-FIHFAIG-amide] (Ac-FIHFAIG-NH2), the IC50 in assay [1] is greater than 333 µM; in assay [2] it was 81 ± 9 µM.

Turning to `CC[C@H](C)[C@H](NC(=O)[C@H](CCCNC(=N)N)NC(=O)[C@H](C)NC(=O)[C@H](Cc1c[nH]cn1)NC(=O)[C@@H](NC(=O)[C@@H](N)Cc1ccccc1)[C@@H](C)CC)C(=O)NCC(=O)O` [Peptide 5a, FIHARIG] (H-FIHARIG-OH), the concentration for half-maximal inhibition (IC50) in assay [1] was greater than 111 µM; in assay [2], 46.6 ± 6.5 µM.

In the case of `CC[C@H](C)[C@H](NC(=O)[C@H](CCCNC(=N)N)NC(=O)[C@H](C)NC(=O)[C@H](Cc1c[nH]cn1)NC(=O)[C@@H](NC(=O)[C@@H](N)Cc1ccccc1)[C@@H](C)CC)C(=O)NCC(N)=O` [Peptide 5b, FIHARIG-amide] (H-FIHARIG-NH2), the 50% inhibitory concentration (IC50) in assay [1] and in assay [2] was greater than 111 µM throughout.

As to `CC[C@H](C)[C@H](NC(=O)[C@H](CCCNC(=N)N)NC(=O)[C@H](C)NC(=O)[C@H](Cc1c[nH]cn1)NC(=O)[C@@H](NC(=O)[C@H](Cc1ccccc1)NC(C)=O)[C@@H](C)CC)C(=O)NCC(N)=O` [Peptide 5c, Ac-FIHARIG-amide] (Ac-FIHARIG-NH2), the figures for the IC50 in assay [1] and in assay [2] were greater than 333 µM and 117 ± 10 µM, respectively.

In the case of `CC[C@H](C)[C@H](NC(=O)[C@H](CCCNC(=N)N)NC(=O)[C@H](Cc1ccccc1)NC(=O)[C@H](C)NC(=O)[C@@H](NC(=O)[C@@H](N)Cc1ccccc1)[C@@H](C)CC)C(=O)NCC(=O)O` [Peptide 6a, FIAFRIG] (H-FIAFRIG-OH), the results for the IC50 in assay [1] and in assay [2] were 17.4 ± 2 µM and 6.7 ± 1 µM, respectively.

With `CC[C@H](C)[C@H](NC(=O)[C@H](CCCNC(=N)N)NC(=O)[C@H](Cc1ccccc1)NC(=O)[C@H](C)NC(=O)[C@@H](NC(=O)[C@@H](N)Cc1ccccc1)[C@@H](C)CC)C(=O)NCC(N)=O` [Peptide 6b, FIAFRIG-amide] (H-FIAFRIG-NH2), the half-inhibitory concentration (IC50) came out at 95.4 ± 5 µM in assay [1] and 35 ± 3.2 µM in assay [2].

On to `CC[C@H](C)[C@H](NC(=O)[C@H](CCCNC(=N)N)NC(=O)[C@H](Cc1ccccc1)NC(=O)[C@H](C)NC(=O)[C@@H](NC(=O)[C@H](Cc1ccccc1)NC(C)=O)[C@@H](C)CC)C(=O)NCC(N)=O` [Peptide 6c, Ac-FIAFRIG-amide] (Ac-FIAFRIG-NH2), for which the concentration for half-maximal inhibition (IC50) in assay [1] was 94 ± 13 µM; in assay [2] it was 3.5 ± 0.3 µM.

With `CC[C@H](C)[C@H](NC(=O)[C@H](CCCNC(=N)N)NC(=O)[C@H](Cc1ccccc1)NC(=O)[C@H](Cc1c[nH]cn1)NC(=O)[C@H](C)NC(=O)[C@@H](N)Cc1ccccc1)C(=O)NCC(=O)O` [Peptide 7a, FAHFRIG] (H-FAHFRIG-OH), the half-inhibitory concentration (IC50) is greater than 111 µM in assay [1] and 73.5 ± 6 µM in assay [2].

On to `CC[C@H](C)[C@H](NC(=O)[C@H](CCCNC(=N)N)NC(=O)[C@H](Cc1ccccc1)NC(=O)[C@H](Cc1c[nH]cn1)NC(=O)[C@H](C)NC(=O)[C@@H](N)Cc1ccccc1)C(=O)NCC(N)=O` [Peptide 7b, FAHFRIG-amide] (H-FAHFRIG-NH2), for which the IC50 in assay [1] and in assay [2] was greater than 111 µM throughout.

For `CC[C@H](C)[C@H](NC(=O)[C@H](CCCNC(=N)N)NC(=O)[C@H](Cc1ccccc1)NC(=O)[C@H](Cc1c[nH]cn1)NC(=O)[C@H](C)NC(=O)[C@H](Cc1ccccc1)NC(C)=O)C(=O)NCC(N)=O` [Peptide 7c, Ac-FAHFRIG-amide] (Ac-FAHFRIG-NH2), the IC50 in assay [1] is greater than 333 µM; in assay [2] it was 127 ± 14 µM.

Take `CC[C@H](C)[C@H](NC(=O)[C@H](C)N)C(=O)N[C@@H](Cc1c[nH]cn1)C(=O)N[C@@H](Cc1ccccc1)C(=O)N[C@@H](CCCNC(=N)N)C(=O)N[C@H](C(=O)NCC(=O)O)[C@@H](C)CC` [Peptide 8a, AIHFRIG] (H-AIHFRIG-OH): the half-maximal inhibitory concentration (IC50) in assay [1] came out at 86.3 ± 5 µM; in assay [2], 22.7 ± 1.4 µM.

Consider `CC[C@H](C)[C@H](NC(=O)[C@H](C)N)C(=O)N[C@@H](Cc1c[nH]cn1)C(=O)N[C@@H](Cc1ccccc1)C(=O)N[C@@H](CCCNC(=N)N)C(=O)N[C@H](C(=O)NCC(N)=O)[C@@H](C)CC` [Peptide 8b, AIHFRIG-amide] (H-AIHFRIG-NH2), for which the IC50 in assay [1] and in assay [2] was greater than 111 µM in each case.

Turning to `CC[C@H](C)[C@H](NC(=O)[C@H](C)NC(C)=O)C(=O)N[C@@H](Cc1c[nH]cn1)C(=O)N[C@@H](Cc1ccccc1)C(=O)N[C@@H](CCCNC(=N)N)C(=O)N[C@H](C(=O)NCC(N)=O)[C@@H](C)CC` [Peptide 8c, Ac-AIHFRIG-amide] (Ac-AIHFRIG-NH2), the half-inhibitory concentration (IC50) was greater than 333 µM in assay [1] and 46 ± 8 µM in assay [2].

For `CC[C@H](C)[C@H](NC(=O)[C@@H](N)Cc1ccccc1)C(=O)N[C@@H](Cc1c[nH]cn1)C(=O)N[C@@H](Cc1ccccc1)C(=O)N[C@@H](CCCNC(=N)N)C(=O)N[C@@H](Cc1ccc(C(=O)c2ccccc2)cc1)C(=O)NCC(=O)O` [Peptide 9a, FIHFRBG] (H-FIHFR[Bpa]G-OH), the IC50 in assay [1] is 20 ± 3 µM; in assay [2], 4 µM and 4.3 µM.

`CC[C@H](C)[C@H](NC(=O)[C@H](Cc1ccc(C(=O)c2ccccc2)cc1)NC(=O)[C@H](Cc1ccccc1)NC(=O)[C@H](Cc1c[nH]cn1)NC(=O)[C@@H](NC(=O)[C@@H](N)Cc1ccccc1)[C@@H](C)CC)C(=O)NCC(=O)O` [Peptide 10a, FIHFBIG] (H-FIHF[Bpa]IG-OH): the concentration for half-maximal inhibition (IC50) in assay [1] is greater than 333 µM; in assay [2], ~50 µM and 48 µM.
